Target: T1, PKCε (Homo sapiens, UniProt Q02156)
T1 construct: purchased Calbiochem
T1 sequence (Q02156 1-737): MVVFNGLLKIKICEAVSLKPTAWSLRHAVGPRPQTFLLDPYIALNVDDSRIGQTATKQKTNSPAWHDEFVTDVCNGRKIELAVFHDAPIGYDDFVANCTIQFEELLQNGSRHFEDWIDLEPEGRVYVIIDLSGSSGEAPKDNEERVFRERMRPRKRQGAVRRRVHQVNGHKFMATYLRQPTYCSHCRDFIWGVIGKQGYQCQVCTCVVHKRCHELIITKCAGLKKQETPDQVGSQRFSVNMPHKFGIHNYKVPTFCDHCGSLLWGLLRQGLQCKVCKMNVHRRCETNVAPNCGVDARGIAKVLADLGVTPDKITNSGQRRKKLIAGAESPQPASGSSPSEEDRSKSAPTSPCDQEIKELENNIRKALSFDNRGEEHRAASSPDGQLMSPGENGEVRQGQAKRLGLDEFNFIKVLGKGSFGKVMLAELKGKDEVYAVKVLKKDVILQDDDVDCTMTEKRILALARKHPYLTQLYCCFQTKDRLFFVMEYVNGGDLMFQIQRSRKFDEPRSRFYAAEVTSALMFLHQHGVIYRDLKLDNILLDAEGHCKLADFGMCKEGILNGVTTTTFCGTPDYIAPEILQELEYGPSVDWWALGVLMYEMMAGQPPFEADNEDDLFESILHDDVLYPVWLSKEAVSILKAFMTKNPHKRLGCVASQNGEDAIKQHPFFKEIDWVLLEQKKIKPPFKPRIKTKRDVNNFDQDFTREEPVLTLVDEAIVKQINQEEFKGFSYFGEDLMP
Assay: PKC assay with purified PKCε
Assay type: biochemical
Method: PKC assay. […] 0.5 micro Ci[^γ32P]ATP was added. […] The reaction was stopped by spotting the reaction mixtures on 1×2 cm strips of cellulose phosphate paper (Whatman P81) and immediately washing twice for 1 hr in 0.5% H3PO4. The cellulose phosphate strips were counted in a scintillation counter. In some experiments, phosphatidylserine, diacylglycerol, and/or calcium were removed. […]
To determine their PKC isozyme specificity, fatty acid derivatives were preincubated with purified PKC for five minutes and the PKC activity was measured radiometrically.

Compound: CCCCCC1CC1CC1CC1CCCCCCCC(=O)O (centres unmarked) [BR-101, 2-[(2-pentylcyclopropyl)methyl]cyclopropaneoctanoic acid]
- activation of PKCε (10 nM, lowest concentration tested): 2.75 fold
- activation of PKCε (at 10 μM): effective activator
